Patent publication US10253039B2, “Inhibitors of bacterial DNA gyrase with efficacy against gram-negative bacteria” (priority 2014, dated 2019)
≈ marks a conversion by molar mass, not a printed value. Where two headings read alike, the source gives them in different places.

Key:
Format in all cases: cell-based
[1] = system: Klebsiella pneumoniae subsp. pneumoniae; assay: MIC, 20-strain panel
In short: (§1)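 After 16-18 h shaking incubation at 37 °C, MIC was read visually as the lowest concentration without turbidity. Compounds were 2-fold serially diluted in LB medium seeded with a 1:10000 inoculum, following the CLSI microdilution protocol.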

E. coli MG1655 = assay: MIC, 20-strain panel; conditions: Escherichia coli, read-out: MIC
In short: as §1

Shigella flexneri = assay: MIC, 20-strain panel
In short: as §1

E. coli JW5503 (deltolC) = assay: MIC, 20-strain panel; conditions: Escherichia coli
In short: as §1

[2] = system: Staphylococcus epidermidis; assay: MIC, 20-strain panel
In short: as §1

[3] = system: Staphylococcus saprophyticus subsp. saprophyticus; assay: MIC, 20-strain panel
In short: as §1

Streptococcus agalactiae = assay: MIC, 20-strain panel
In short: as §1

[4] = system: Staphylococcus aureus subsp. aureus; assay: MIC, 20-strain panel; conditions: read-out: MIC
In short: as §1

[5] = system: Salmonella enterica subsp. enterica typhimurium; assay: MIC, 20-strain panel
In short: as §1

Streptococcus pyogenes = assay: MIC, 20-strain panel
In short: as §1

Edwardsiella tarda = assay: MIC, microdilution in 96-well plates
In short: as §1

E. coli BW25113 = assay: MIC, microdilution in 96-well plates; conditions: Escherichia coli, read-out: MIC
In short: as §1

[6] = E: Klebsiella pneumoniae subsp. pneumoniae
[7] = H: Staphylococcus aureus subsp. aureus
[8] = F: Salmonella enterica subsp. enterica Typhimurium
[9] = Klebsiella pneumoniae subsp. pneumoniae
[10] = Staphylococcus aureus subsp. aureus
[11] = Salmonella enterica subsp. enterica Typhimurium

Row | Structure (SMILES) | MIC [1, 6] | MIC (E. coli MG1655; MG1655, A: E. coli MG1655) | MIC (Shigella flexneri; G: Shigella flexneri) | MIC (E. coli JW5503 (deltolC); C: E. coli JW5503 (deltolC)) | MIC [2] | MIC [3] | MIC (Streptococcus agalactiae) | MIC [4, 7] | MIC [5, 8] | MIC (Streptococcus pyogenes) | MIC (Edwardsiella tarda; D: Edwardsiella tarda) | MIC (E. coli BW25113; BW25113, B: E. coli BW25113) | MIC [1, 9] | MIC (E. coli MG1655; MG1655, E. coli MG1655) | MIC (Shigella flexneri) | MIC (E. coli JW5503 (deltolC); E. coli JW5503 (deltolC)) | MIC [4, 10] | MIC [5, 11] | MIC (Edwardsiella tarda) | MIC (E. coli BW25113; BW25113, E. coli BW25113)
1 | O=S(=O)(N[C@@H]1CCN(Cc2ccc(-c3ccccc3)cc2)C1)c1cc(C(F)(F)F)ccc1F [Compound 114] | > 8 µg/mL | > 8 µg/mL | > 8 µg/mL | 1 µg/mL (≈ 2.09 µM) | ~8 µg/mL (≈ 16.7 µM) | > 8 µg/mL | > 8 µg/mL | > 8 µg/mL | 4 µg/mL (≈ 8.36 µM) | ~8 µg/mL (≈ 16.7 µM) | > 8 µg/mL | > 8 µg/mL | – | – | – | – | – | – | – | –
2 | O=S(=O)(N[C@@H]1CCN(Cc2ccc(OC3CC3)cc2)C1)c1cccc2cccnc12 [Compound 96] | > 8 µg/mL | > 8 µg/mL | > 8 µg/mL | 1 µg/mL (≈ 2.36 µM) | > 8 µg/mL | > 8 µg/mL | > 8 µg/mL | > 8 µg/mL | ~8 µg/mL (≈ 18.9 µM) | > 8 µg/mL | > 8 µg/mL | > 8 µg/mL | – | – | – | – | – | – | – | –
3 | O=S(=O)(N[C@@H]1CCN(Cc2ccc(OC3CC3)cc2)C1)c1ccc(Cl)cn1 [Compound 132] | – | – | – | – | > 8 µg/mL | > 8 µg/mL | > 8 µg/mL | – | – | > 8 µg/mL | – | – | > 8 µg/mL | > 8 µg/mL | > 8 µg/mL | > 8 µg/mL | > 8 µg/mL | > 8 µg/mL | > 8 µg/mL | > 8 µg/mL
4 | O=S(=O)(N[C@@H]1CCN(Cc2ccc(-n3cccn3)cc2)C1)c1cccc(OC(F)(F)F)c1 [Compound 21] | > 8 µg/mL | > 8 µg/mL | > 8 µg/mL | 2 µg/mL (≈ 4.29 µM) | 2 µg/mL (≈ 4.29 µM) | > 8 µg/mL | > 8 µg/mL | 8 µg/mL (≈ 17.1 µM) | > 8 µg/mL | > 8 µg/mL | > 8 µg/mL | > 8 µg/mL | – | – | – | – | – | – | – | –
5 | N#Cc1cc(S(=O)(=O)N[C@@H]2CCN(Cc3ccc(OC4CC4)cc3)C2)ccc1F [Compound 166] | – | – | – | – | > 8 µg/mL | > 8 µg/mL | > 8 µg/mL | – | – | > 8 µg/mL | – | – | > 8 µg/mL | > 8 µg/mL | > 8 µg/mL | 2 µg/mL (≈ 4.81 µM) | > 8 µg/mL | ~8 µg/mL (≈ 19.3 µM) | > 8 µg/mL | > 8 µg/mL
6 | O=S(=O)(N[C@@H]1CCN(Cc2ccc(OC3CC3)cc2)C1)c1cc(F)cc(C(F)(F)F)c1 [Compound 152] | – | – | – | – | > 8 µg/mL | > 8 µg/mL | > 8 µg/mL | – | – | > 8 µg/mL | – | – | > 8 µg/mL | > 8 µg/mL | > 8 µg/mL | 8 µg/mL (≈ 17.4 µM) | > 8 µg/mL | > 8 µg/mL | > 8 µg/mL | > 8 µg/mL
7 | CC(=O)c1cc(S(=O)(=O)N[C@@H]2CCN(Cc3ccc(-c4ccccc4)cc3)C2)ccc1C [Compound 68] | > 8 µg/mL | > 8 µg/mL | > 8 µg/mL | 8 µg/mL (≈ 17.8 µM) | 8 µg/mL (≈ 17.8 µM) | > 8 µg/mL | > 8 µg/mL | > 8 µg/mL | > 8 µg/mL | > 8 µg/mL | > 8 µg/mL | > 8 µg/mL | – | – | – | – | – | – | – | –
8 | Cc1ccc(C(F)(F)F)cc1S(=O)(=O)N[C@@H]1CCN(Cc2ccc(OC(C)C)cc2)C1 [Compound 183] | – | – | – | – | > 8 µg/mL | > 8 µg/mL | > 8 µg/mL | – | – | > 8 µg/mL | – | – | > 8 µg/mL | > 8 µg/mL | > 8 µg/mL | 0.5 µg/mL (≈ 1.1 µM) | > 8 µg/mL | 8 µg/mL (≈ 17.5 µM) | > 8 µg/mL | > 8 µg/mL
9 | Cc1ccc(S(=O)(=O)N[C@@H]2CCN(Cc3ccc(-c4ccccc4)cc3)C2)cc1C#N [Compound 131] | – | – | – | – | > 8 µg/mL | > 8 µg/mL | > 8 µg/mL | – | – | > 8 µg/mL | – | – | > 8 µg/mL | > 8 µg/mL | > 8 µg/mL | 8 µg/mL (≈ 18.5 µM) | > 8 µg/mL | > 8 µg/mL | > 8 µg/mL | > 8 µg/mL
10 | O=S(=O)(N[C@@H]1CCN(Cc2ccc3c(c2)OCCO3)C1)c1cccc(OC(F)(F)F)c1 [Compound 62] | > 8 µg/mL | > 8 µg/mL | > 8 µg/mL | 8 µg/mL (≈ 17.4 µM) | > 8 µg/mL | > 8 µg/mL | > 8 µg/mL | > 8 µg/mL | > 8 µg/mL | > 8 µg/mL | > 8 µg/mL | > 8 µg/mL | – | – | – | – | – | – | – | –
11 | N#Cc1cccc(S(=O)(=O)N[C@@H]2CCN(Cc3ccc(OC(F)(F)F)cc3)C2)c1 [Compound 17] | > 8 µg/mL | > 8 µg/mL | > 8 µg/mL | 8 µg/mL (≈ 18.8 µM) | > 8 µg/mL | > 8 µg/mL | > 8 µg/mL | > 8 µg/mL | > 8 µg/mL | > 8 µg/mL | > 8 µg/mL | > 8 µg/mL | – | – | – | – | – | – | – | –
12 | O=S(=O)(N[C@@H]1CCN(Cc2ccc(OCC(F)F)cc2)C1)c1cccc(C(F)(F)F)c1 [Compound 64] | > 8 µg/mL | > 8 µg/mL | > 8 µg/mL | 0.25 µg/mL (≈ 0.538 µM) | > 8 µg/mL | > 8 µg/mL | > 8 µg/mL | > 8 µg/mL | 4 µg/mL (≈ 8.61 µM) | > 8 µg/mL | > 8 µg/mL | > 8 µg/mL | – | – | – | – | – | – | – | –
13 | COc1cc(CN2CC[C@@H](NS(=O)(=O)c3cccc(C#N)c3)C2)ccc1OC(C)C [Compound 155] | – | – | – | – | > 8 µg/mL | > 8 µg/mL | > 8 µg/mL | – | – | > 8 µg/mL | – | – | > 8 µg/mL | > 8 µg/mL | > 8 µg/mL | > 8 µg/mL | > 8 µg/mL | > 8 µg/mL | > 8 µg/mL | > 8 µg/mL
14 | CC(C)Oc1ccc(CN2CC[C@@H](NS(=O)(=O)c3ccc(Cl)c(C#N)c3)C2)cc1 [Compound 118] | > 8 µg/mL | > 8 µg/mL | > 8 µg/mL | > 8 µg/mL | > 8 µg/mL | > 8 µg/mL | > 8 µg/mL | > 8 µg/mL | > 8 µg/mL | > 8 µg/mL | > 8 µg/mL | > 8 µg/mL | – | – | – | – | – | – | – | –
15 | O=S(=O)(N[C@@H]1CCN(Cc2ccc(OC(F)(F)F)cc2)C1)c1cccc(C(F)(F)F)c1 [Compound 6] | > 8 µg/mL | > 8 µg/mL | > 8 µg/mL | 4 µg/mL (≈ 8.54 µM) | > 8 µg/mL | > 8 µg/mL | > 8 µg/mL | > 8 µg/mL | > 8 µg/mL | > 8 µg/mL | > 8 µg/mL | > 8 µg/mL | – | – | – | – | – | – | – | –
